{"source": "patent US20100317515A1", "about": "“Azolylmethyloxiranes, use Thereof and Agents Containing the Same” (priority 2007, published 2010)", "key": {"Botrytis cinerea": {"tested_on": "Botrytis cinerea", "assay": "Activity against gray mold on bell pepper leaves caused by Botrytis cinerea, 1 day protective application (Botrci P1)", "assay_type": "in vivo", "conditions": "untreated 90%", "experimental": "(§1) The active compounds were prepared separately or jointly as a stock solution comprising 25 mg of active compound which was made up to 10 ml using a mixture of acetone and/or DMSO and the emulsifier Uniperol® EL (wetting agent having emulsifying and dispersing action based on ethoxylated alkylphenols) in a volume ratio of solvent/emulsifier of 99:1. The mixture was then made up to 100 ml with water. This stock solution was diluted with the solvent/emulsifier/water mixture described to give the concentration of active compounds stated below. Alternatively, the active compounds were used as a commercial finished formulation and diluted with water to the concentration of active compounds stated.\nActivity Against Gray Mold on Bell Pepper Leaves Caused by Botrytis cinerea, 1 Day Protective Application (Botrci P1)\nBell pepper seedlings were, after 2-3 leaves were well developed, sprayed to runoff point with an aqueous suspension having the active compound concentration stated below. The next day, the treated plants were inoculated with a spore suspension of Botrytis cinerea in a 2% strength biomalt solution. The test plants were then placed in a dark climatized chamber at 22 to 24° C. and high atmospheric humidity. After 5 days, the extent of the fungal infection on the leaves could be determined visually in %."}, "Puccinia recondita": {"tested_on": "Puccinia recondita", "assay": "Protective activity against Puccinia recondita on wheat (brown rust of wheat) (Puccrt P1)", "assay_type": "in vivo"}, "Leptosphaeria nodorum": {"tested_on": "Leptosphaeria nodorum", "assay": "Activity against the leaf and glume blotch pathogen Leptosphaeria nodorum in the microtiter test (Leptno)", "assay_type": "cell-based"}, "Pyricularia oryzae": {"tested_on": "Pyricularia oryzae", "assay_type": "cell-based"}, "Phakopsora pachyrhizi": {"tested_on": "Phakopsora pachyrhizi", "assay": "Curative activity against soybean rust caused by Phakopsora pachyrhizi (Phakpa K1)", "assay_type": "in vivo, Phakopsora pachyrhizi on soybean", "conditions": "curative application, untreated 90%", "experimental": "as §1\nCurative Activity Against Soybean Rust Caused by Phakopsora pachyrhizi (Phakpa K1)\nLeaves of potted soybean seedlings were inoculated with a spore suspension of soybean rust (Phakopsora pachyrhizi). The pots were then placed in a chamber with high atmospheric humidity (90 to 95%) and at 23 to 27° C. for 24 hours. During this time, the spores germinated and the germ tubes penetrated into the leaf tissue. The infected plants were then sprayed to runoff point with the active compound solution described above at the active compound concentration stated below. After the spray coating had dried on, the test plants were cultivated in a greenhouse at temperatures between 23 and 27° C. and 60 to 80% relative atmospheric humidity for 14 days. The extent of the rust fungus development on the leaves was then determined visually in % infection."}, "Septoria tritici": {"tested_on": "Septoria tritici", "assay": "Activity against the Septoria leaf spot pathogen Septoria tritici in the microtiter test (Septtr)", "assay_type": "cell-based"}, "Alternaria solani": {"tested_on": "Alternaria solani", "assay": "Activity against the early blight pathogen Alternaria solani in the microtiter test (Alteso)", "assay_type": "cell-based", "conditions": "day 7, relative to active compound-free control (100%)"}, "[1]": {"conditions": "31 ppm, microtiter test, comparative experiments"}, "[2]": {"conditions": "31 ppm, microtiter test, day 7, relative to active compound-free control (100%)"}}, "note": "Where two headings read alike, the source gives them in different places."}
{"molecule": "Fc1ccc([C@]2(Cn3cnc(S)n3)O[C@H]2c2ccccc2Cl)c(F)c1", "note": "(relative stereo) [Example 1, 1-[rel-(2R,3S)-3-(2-chlorophenyl)-2-(2,4-difluorophenyl)oxiranylmethyl]-1H-[1,2,4]triazole-3-thiol]", "values": [{"measurement": "Infection in % at 600 ppm for Botrci P1", "setting": "Botrytis cinerea", "value": 7, "unit": "%"}, {"measurement": "Infection in % at 600 ppm for Puccrt P1", "setting": "Puccinia recondita; 600 ppm, protective spray 1 day before inoculation, wheat, untreated 90%", "value": 0, "unit": "%"}]}
{"molecule": "Fc1ccc([C@@]2(Cn3nc[nH]c3=S)O[C@@H]2c2ccccc2Cl)cc1F", "note": "(relative stereo) [Example 3, 1-[rel-(2S,3R)-3-(2-chlorophenyl)-2-(3,4-difluorophenyl)oxiran-2-ylmethyl]-1H-1,2,4-triazole-5(4-H)-thione]", "values": [{"measurement": "Growth in % at 31 ppm for Leptno", "setting": "Leptosphaeria nodorum", "value": 60, "unit": "%"}, {"measurement": "Infection in % at 600 ppm for Puccrt P1", "setting": "Puccinia recondita; in vivo", "value": 0, "unit": "%"}]}
{"molecule": "Fc1ccc([C@@]2(Cn3nc[nH]c3=S)O[C@@H]2c2ccccc2F)c(F)c1", "note": "(relative stereo) [Example 4, 1-[rel-(2S,3R)-2-(2,4-difluorophenyl)-3-(2-fluorophenyl)oxiran-2-ylmethyl]-1H-1,2,4-triazole-5(4H)-thione]", "values": [{"measurement": "Growth in % at 31 ppm for Pyrior", "setting": "Pyricularia oryzae; [1]", "value": 7, "unit": "%"}, {"measurement": "Growth in % at 31 ppm for Pyrior", "setting": "Pyricularia oryzae; [2]", "value": 7, "unit": "%"}]}
{"molecule": "Fc1ccc([C@@]2(Cn3nc[nH]c3=S)O[C@@H]2c2ccccc2C(F)(F)F)cc1F", "note": "(relative stereo) [Example 5, 1-[rel-(2S,3R)-2-(3,4-difluorophenyl)-3-(2-(trifluoromethyl)phenyl)oxiran-2-ylmethyl]-1H-1,2,4-triazole-5(4H)-thione]", "values": [{"measurement": "Infection in % at 300 ppm for Puccrt P1", "setting": "Puccinia recondita; 300 ppm, protective spray 1 day before inoculation, wheat, untreated 90%", "value": 10, "unit": "%"}]}
{"molecule": "CSc1ncnn1C[C@]1(c2ccc(F)cc2F)O[C@@H]1c1ccccc1F", "note": "(relative stereo) [Example 8, 1-[rel-(2S,3R)-2-(2,4-difluorophenyl)-3-(2-fluorophenyl)oxiran-2-ylmethyl]-5-(methylthio)-1H-1,2,4-triazole]", "values": [{"measurement": "Infection in % at 600 ppm for Phakpa K1", "setting": "Phakopsora pachyrhizi", "value": 1, "unit": "%"}]}
{"molecule": "CSc1ncnn1C[C@]1(c2ccc(F)c(F)c2)O[C@@H]1c1ccccc1C(F)(F)F", "note": "(relative stereo) [Example 9, 1-[rel-(2S,3R)-2-(3,4-difluorophenyl)-3-(2-(trifluoromethyl)phenyl)oxiran-2-ylmethyl]-5-(methylthio)-1H-1,2,4-triazole]", "values": [{"measurement": "Infection in % at 600 ppm for Phakpa K1", "setting": "Phakopsora pachyrhizi", "value": 0, "unit": "%"}]}
{"molecule": "CSc1ncnn1C[C@]1(c2ccc(F)cc2F)O[C@@H]1c1ccccc1Cl", "note": "(relative stereo) [Example 10, 1-[rel-(2S,3R)-3-(2-chlorophenyl)-2-(2,4-difluorophenyl)oxiran-2-ylmethyl]-5-(methylthio)-1H-1,2,4-triazole]", "values": [{"measurement": "Infection in % at 600 ppm for Phakpa K1", "setting": "Phakopsora pachyrhizi", "value": 0, "unit": "%"}]}
{"molecule": "N#CSc1ncnn1C[C@]1(c2ccc(F)cc2F)O[C@@H]1c1ccccc1Cl", "note": "(relative stereo) [Example 12, 1-[rel-(2S,3R)-3-(2-chlorophenyl)-2-(2,4-difluorophenyl)oxiran-2-ylmethyl]-5-thiocyanato-1H-1,2,4-triazole]", "values": [{"measurement": "Growth in % at 31 ppm for Septtr", "setting": "Septoria tritici; [2]", "value": 1, "unit": "%"}, {"measurement": "Growth in % at 31 ppm for Alteso", "setting": "Alternaria solani", "value": 43, "unit": "%"}]}
{"molecule": "CCOP(=S)(OCC)Sc1ncnn1C[C@]1(c2ccc(F)cc2F)O[C@@H]1c1ccccc1Cl", "note": "(relative stereo) [Example 13, S-1-[rel-(2S,3R)-3-(2-chlorophenyl)-2-(2,4-difluorophenyl)oxiran-2-ylmethyl]-1H-1,2,4-triazol-5-yl O,O-diethyl phosphorodithioate]", "values": [{"measurement": "Growth in % at 31 ppm for Septtr", "setting": "Septoria tritici", "value": 4, "unit": "%"}]}
{"molecule": "CC(=O)Sc1ncnn1C[C@]1(c2ccc(F)cc2F)O[C@@H]1c1ccccc1Cl", "note": "(relative stereo) [Example 14, S-{2-[3-(2-chlorophenyl)-2-(2,4-difluorophenyl)oxiranylmethyl]-2H-[1,2,4]triazole-3-yl} rel-(2S,3R)thio acetate]", "values": [{"measurement": "Infection in % at 600 ppm for Botrci P1", "setting": "Botrytis cinerea", "value": 3, "unit": "%"}, {"measurement": "Infection in % at 600 ppm for Puccrt P1", "setting": "Puccinia recondita; in vivo", "value": 0, "unit": "%"}]}
{"molecule": "Fc1ccc([C@@]2(Cn3ncnc3[S-])O[C@@H]2c2ccccc2Cl)c(F)c1.[Na+]", "note": "(relative stereo) [Example 16, sodium rel-(2S,3R)-2-[3-(2-chlorophenyl)-2-(2,4-difluorophenyl)oxiranylmethyl]-2H-[1,2,4]triazole-3-thiolate]", "values": [{"measurement": "Growth in % at 31 ppm for Leptno", "setting": "Leptosphaeria nodorum; [2]", "value": 4, "unit": "%"}]}
{"molecule": "Fc1ccc([C@@]2(Cn3nc[nH]c3=S)O[C@@H]2c2ccccc2Cl)cc1Br", "note": "[WO9638440, p. 7 (2nd compound)]", "values": [{"measurement": "Growth in % at 31 ppm for Leptno", "setting": "Leptosphaeria nodorum; [1]", "value": 100, "unit": "%"}]}
{"molecule": "Fc1ccc([C@@]2(Cn3ncnc3S)O[C@@H]2c2ccccc2F)cc1", "note": "[WO9638440, p. 9 (2nd compound)]", "values": [{"measurement": "Growth in % at 31 ppm for Pyrior", "setting": "Pyricularia oryzae; [1]", "value": 30, "unit": "%"}]}
{"molecule": "COC(=O)Sc1ncnn1CC1(c2ccc(F)cc2F)OC1c1ccccc1Cl", "note": "(centres unmarked) [WO9742178, p. 55 (4th compound)]", "values": [{"measurement": "Growth in % at 31 ppm for Pyrior", "setting": "Pyricularia oryzae; [1]", "value": 94, "unit": "%"}]}
{"molecule": "S-{2-[3-(2-chlorophenyl)-2-(2,4-difluorophenyl)oxiranylmethyl]-2H-[1,2,4]triazole-3-yl}rel-(2S,3R)thio carbonate [Example 15]", "values": [{"measurement": "Growth in % at 31 ppm for Pyrior", "setting": "Pyricularia oryzae", "value": 64, "unit": "%"}]}
